Results on three compounds are retold here after PMC3625961 (Synapse (New York, N.Y.), 2011).

Broadly, the Ki is a measure of affinity in units of concentration, obtained from inhibition or displacement. As a reminder, the Kd is the equilibrium constant for the complex coming apart.

The target in data set [1] is T1, CRF1 receptor (Macaca mulatta, UniProt Q76LL8).
T1 sequence (Q76LL8 24-415): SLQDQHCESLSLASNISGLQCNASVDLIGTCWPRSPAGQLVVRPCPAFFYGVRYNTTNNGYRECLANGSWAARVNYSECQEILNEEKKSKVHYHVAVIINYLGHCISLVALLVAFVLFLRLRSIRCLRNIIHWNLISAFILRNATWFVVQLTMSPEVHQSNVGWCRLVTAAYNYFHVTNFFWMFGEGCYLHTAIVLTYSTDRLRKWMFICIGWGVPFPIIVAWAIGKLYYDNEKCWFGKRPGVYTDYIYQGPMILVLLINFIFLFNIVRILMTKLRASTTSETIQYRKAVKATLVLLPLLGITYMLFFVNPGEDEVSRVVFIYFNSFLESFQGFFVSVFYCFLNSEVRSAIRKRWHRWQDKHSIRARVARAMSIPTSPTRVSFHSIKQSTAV
In kind it is binding, rhesus monkey.

The target in the next data set is T2, CRF1 receptors (Rattus norvegicus, UniProt P35353).
T2 sequence (P35353 24-415): T1 sequence (Q76LL8 24-415) with H6R, S9N, A13T, I16V, M153V, G163A, I209V, Y229H, H356R
Briefly: In vitro autoradiography competition with [125I]Sauvagine, rat frontal cortex. The format is binding.

For the next data set, the target named is CRF2 R (Rattus norvegicus, UniProt P47866). Briefly: In vitro autoradiography competition with [125I]Sauvagine, rat choroid plexus. In kind it is binding. To be noted: read-out: Rat choroid plexus Ki; [125I] Sauvagine 0.1 nM; n=3.
Chain of CRF2 R (P47866 1-431 isoform P47866-2): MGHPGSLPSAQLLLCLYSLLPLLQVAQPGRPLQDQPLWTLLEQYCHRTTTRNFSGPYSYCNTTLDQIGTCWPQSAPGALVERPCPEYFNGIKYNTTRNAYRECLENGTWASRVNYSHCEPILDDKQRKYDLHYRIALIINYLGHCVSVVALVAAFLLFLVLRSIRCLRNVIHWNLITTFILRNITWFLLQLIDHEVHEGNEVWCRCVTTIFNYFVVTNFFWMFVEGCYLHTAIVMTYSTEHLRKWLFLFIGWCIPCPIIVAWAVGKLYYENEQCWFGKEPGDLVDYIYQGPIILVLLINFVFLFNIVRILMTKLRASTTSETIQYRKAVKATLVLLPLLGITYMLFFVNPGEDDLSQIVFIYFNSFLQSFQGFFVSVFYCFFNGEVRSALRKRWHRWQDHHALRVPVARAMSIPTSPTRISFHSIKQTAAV
For data set [2], the target named is T1, CRF1 receptor. Briefly: In vitro autoradiography with radioligand. The format is binding, rhesus monkey. To be noted: saturation, ROIs in monkey prefrontal/frontal cortex; n=3.
In a further data set the test system is P-gp. The settings on record: ref Kiesewetter et al., 2003; cited from earlier work.
Where [3] appears, read: monkey frontal cortex, [125I]o-CRH.

Molecules are shown by their SMILES. Substitutions are numbered along the chain they refer to. Where only a bound is given, the exact number is not on record here.

For the compound `COCCN(CCOC)c1nc(C)nc2c(-c3c(OC)cc(Br)cc3OC)c(C)nn12` [4-Br-BMK-152, [8-(4-bromo-2,6-dimethoxyphenyl)-2,7-dimethylpyrazolo[1,5-α][1,3,5]triazin-4-yl]-N,N-bis-(2-methoxyethyl)amine], the “greater affinity compared to 3-Br-BMK” value on CRF1 receptor [1] (setting [3]) stood at 70 fold. Moreover, the “greater affinity compared to o-CRH” value at CRF1 receptor [1] (setting [3]) is reported as 4 fold; at CRF1 receptors (rat frontal cortex, [125I]Sauvagine) it was 5 fold. Also, the Ki is 0.35 ± 0.05 nM on CRF1 receptor [1] (read-out: Rhesus Frontal Cortex Ki, [125I]-oCRH 0.125 nM, mean ± SD, n=3); 0.15 ± 0.05 nM on CRF1 receptors (read-out: Rat Frontal Cortex Ki, [125I] Sauvagine 0.1 nM, mean ± SD, n=3); more than 1000 nM on CRF2 R.

With `CC[C@H](C)[C@H](NC(=O)[C@H](CC(=O)O)NC(=O)[C@H](CC(C)C)NC(=O)[C@H](CC(C)C)NC(=O)[C@H](CCCCN)NC(=O)[C@H](CCCNC(=N)N)NC(=O)[C@H](CC(N)=O)NC(=O)[C@H](CO)NC(=O)[C@H](Cc1c[nH]cn1)NC(=O)[C@H](C)NC(=O)[C@H](CCC(N)=O)NC(=O)[C@H](CCC(N)=O)NC(=O)[C@H](C)NC(=O)[C@H](CC(C)C)NC(=O)[C@H](CCC(N)=O)NC(=O)[C@H](CC(=O)O)NC(=O)[C@H](C)NC(=O)[C@H](CCCCN)NC(=O)[C@@H](NC(=O)[C@H](CCSC)NC(=O)[C@H](CCC(=O)O)NC(=O)[C@H](CC(C)C)NC(=O)[C@@H](NC(=O)[C@H](CCC(=O)O)NC(=O)[C@H](CCCNC(=N)N)NC(=O)[C@H](CC(C)C)NC(=O)[C@H](CC(C)C)NC(=O)[C@H](Cc1c[nH]cn1)NC(=O)[C@H](Cc1ccccc1)NC(=O)[C@@H](NC(=O)[C@H](CC(C)C)NC(=O)[C@H](CC(=O)O)NC(=O)[C@H](CC(C)C)NC(=O)[C@H](CO)NC(=O)[C@@H](NC(=O)[C@@H]1CCCN1C(=O)[C@@H]1CCCN1C(=O)[C@H](CCC(=O)O)NC(=O)[C@H](CCC(N)=O)NC(=O)[C@H](CO)NC(=O)[C@@H](N)Cc1ccc(O)c(I)c1)[C@@H](C)CC)[C@@H](C)O)C(C)C)[C@@H](C)O)C(=O)N[C@@H](C)C(N)=O` [[^125I]o-CRH], binding on CRF1 receptor [2] was characterised by a dissociation constant (Kd) of 0.68 ± 0.22 nM.

As to `CC(=O)O[C@H]1C(=O)[C@@]2(C)[C@H]([C@H](OC(=O)c3ccccc3)[C@]3(O)C[C@H](OC(=O)[C@H](O)[C@@H](NC(=O)c4ccccc4)c4ccccc4)C(C)=C1C3(C)C)[C@]1(OC(C)=O)CO[C@@H]1C[C@@H]2O` [paclitaxel], the “increase in P-gp KO mice compared to WT mice” value in the data set on P-gp is on record as 640%.
